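Interpolation was linear, between the two tested concentrations surrounding the appropriate level; five concentrations were tested over 48 hours in 96-well plates. GI50 is the concentration that inhibits growth by half. At the TGI there is no net growth.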
Columns and labels:
Assay in all cases: NCI anticancer screen, dose series, 48 h
CAKI-1 renal = system: CAKI-1 renal
DU-145 prostate = system: DU-145 prostate
IGROV1 ovarian = system: IGROV1 ovarian
SK-OV-3 ovarian = system: SK-OV-3 ovarian
HS 578T breast = system: HS 578T breast
BT-549 breast = system: BT-549 breast
TK-10 renal = system: TK-10 renal
NCI-H460 lung = system: NCI-H460 lung
OVCAR-5 ovarian = system: OVCAR-5 ovarian
UACC-62 melanoma = system: UACC-62 melanoma
EKVX NSCLC = system: EKVX NSCLC
NCI-H23 lung = system: NCI-H23 lung
OVCAR-3 ovarian = system: OVCAR-3 ovarian
SNB-75 CNS = system: SNB-75 CNS
RPMI-8226 leukemia = system: RPMI-8226 leukemia
NCI/ADR-RES ovarian = system: NCI/ADR-RES ovarian
MDA-MB-231 breast = system: MDA-MB-231 breast
SF-295 CNS = system: SF-295 CNS
SK-MEL-2 melanoma = system: SK-MEL-2 melanoma
HOP-62 NSCLC = system: HOP-62 NSCLC
HCT-15 colon = system: HCT-15 colon
SK-MEL-5 melanoma = system: SK-MEL-5 melanoma
MCF7 breast = system: MCF7 breast
ACHN renal = system: ACHN renal
M14 melanoma = system: M14 melanoma
RXF 393 renal = system: RXF 393 renal
KM12 colon = system: KM12 colon
MOLT-4 leukemia = system: MOLT-4 leukemia
K-562 leukemia = system: K-562 leukemia
U251 CNS = system: U251 CNS
SN12C renal = system: SN12C renal
SF-539 CNS = system: SF-539 CNS
HT29 colon = system: HT29 colon
HOP-92 NSCLC = system: HOP-92 NSCLC
SK-MEL-28 melanoma = system: SK-MEL-28 melanoma
COLO 205 colon = system: COLO 205 colon
PC-3 prostate = system: PC-3 prostate
MDA-MB-435 = system: MDA-MB-435
UO-31 renal = system: UO-31 renal
SF-268 CNS = system: SF-268 CNS
SNB-19 CNS = system: SNB-19 CNS
A549 NSCLC = system: A549 NSCLC
LOX IMVI melanoma = system: LOX IMVI melanoma
NCI-H522 lung = system: NCI-H522 lung
NCI-H226 lung = system: NCI-H226 lung
786-0 renal = system: 786-0 renal
HL-60(TB) leukemia = system: HL-60(TB) leukemia
SW-620 colon = system: SW-620 colon
UACC-257 melanoma = system: UACC-257 melanoma
HCT-116 colon = system: HCT-116 colon
OVCAR-8 ovarian = system: OVCAR-8 ovarian
SR leukemia = system: SR leukemia
CCRF-CEM leukemia = system: CCRF-CEM leukemia
OVCAR-4 ovarian = system: OVCAR-4 ovarian
MALME-3M melanoma = system: MALME-3M melanoma
HCC-2998 colon = system: HCC-2998 colon

## COc1c(N2CCN(CN3C(=O)C(=Nc4ccc(S(=O)(=O)Nc5ncccn5)cc4)c4cc(Cl)ccc43)C(C)C2)c(F)cc2c(=O)c(C(=O)O)cn(C3CC3)c12 (stereo not given)
CAKI-1 renal
  GI50: 14 µM
  TGI: 42.2 µM
DU-145 prostate
  GI50: 16.3 µM
  TGI: > 50 µM
IGROV1 ovarian
  GI50: 15.8 µM
  TGI: > 50 µM
SK-OV-3 ovarian
  GI50: 40 µM
  TGI: > 50 µM
HS 578T breast
  GI50: 11.9 µM
  TGI: 42.8 µM
BT-549 breast
  GI50: 20.4 µM
  TGI: > 50 µM
TK-10 renal
  GI50: 13.3 µM
  TGI: 35.2 µM
NCI-H460 lung
  GI50: 10.9 µM
  TGI: 46 µM
OVCAR-5 ovarian
  GI50: > 50 µM
  TGI: > 50 µM
UACC-62 melanoma
  GI50: 13.7 µM
  TGI: 49.9 µM
EKVX NSCLC
  GI50: 18.9 µM
  TGI: > 50 µM
NCI-H23 lung
  GI50: 8.22 µM
  TGI: 18.4 µM
OVCAR-3 ovarian
  GI50: 14.3 µM
  TGI: > 50 µM
SNB-75 CNS
  GI50: 19.1 µM
  TGI: > 50 µM
RPMI-8226 leukemia
  GI50: 16.8 µM
  TGI: > 50 µM
NCI/ADR-RES ovarian
  GI50: 12.3 µM
  TGI: 38.1 µM
MDA-MB-231 breast
  GI50: 8.28 µM
  TGI: 31 µM
SF-295 CNS
  GI50: 24.5 µM
  TGI: > 50 µM
SK-MEL-2 melanoma
  GI50: 26.6 µM
  TGI: > 50 µM
HOP-62 NSCLC
  GI50: 18.2 µM
  TGI: > 50 µM
HCT-15 colon
  GI50: 45.4 µM
  TGI: > 50 µM
SK-MEL-5 melanoma
  GI50: 7.99 µM
  TGI: 15.8 µM
MCF7 breast
  GI50: 11.9 µM
  TGI: 44.4 µM
ACHN renal
  GI50: 11.8 µM
  TGI: > 50 µM
M14 melanoma
  GI50: 13.8 µM
  TGI: 44.7 µM
RXF 393 renal
  GI50: 8.3 µM
  TGI: > 50 µM
KM12 colon
  GI50: 9.61 µM
  TGI: 26.8 µM
MOLT-4 leukemia
  GI50: 33.3 µM
  TGI: > 50 µM
K-562 leukemia
  GI50: 21.5 µM
  TGI: > 50 µM
U251 CNS
  GI50: 34.8 µM
  TGI: > 50 µM
SN12C renal
  GI50: 10.6 µM
  TGI: 27.5 µM
SF-539 CNS
  GI50: 15.4 µM
  TGI: 40.9 µM
HT29 colon
  GI50: 7.76 µM
  TGI: > 50 µM
HOP-92 NSCLC
  GI50: 19.2 µM
  TGI: > 50 µM
SK-MEL-28 melanoma
  GI50: 30.4 µM
  TGI: > 50 µM
COLO 205 colon
  GI50: 18.4 µM
  TGI: > 50 µM
PC-3 prostate
  GI50: 15 µM
  TGI: > 50 µM
MDA-MB-435
  GI50: 10.3 µM
  TGI: 21.1 µM
UO-31 renal
  GI50: 37.5 µM
  TGI: > 50 µM
SF-268 CNS
  GI50: 12.1 µM
  TGI: > 50 µM
SNB-19 CNS
  GI50: 15.7 µM
  TGI: 49.4 µM
A549 NSCLC
  GI50: 18.5 µM
  TGI: > 50 µM
LOX IMVI melanoma
  GI50: 12.8 µM
  TGI: > 50 µM
NCI-H522 lung
  GI50: > 50 µM
  TGI: > 50 µM
NCI-H226 lung
  GI50: 30 µM
  TGI: > 50 µM
786-0 renal
  GI50: 19.2 µM
  TGI: > 50 µM
HL-60(TB) leukemia
  GI50: 16.6 µM
  TGI: > 50 µM
SW-620 colon
  GI50: 10.7 µM
  TGI: 44.7 µM
UACC-257 melanoma
  GI50: 6.77 µM
  TGI: 17.7 µM
HCT-116 colon
  GI50: 9.19 µM
  TGI: 21.7 µM
OVCAR-8 ovarian
  GI50: 13.9 µM
  TGI: > 50 µM
SR leukemia
  GI50: 12.4 µM
  TGI: > 50 µM

## Cc1cn(S(=O)(=O)c2ccccc2)c2c(OCc3ccccc3)cc(NC(=O)c3cc4cc([N+](=O)[O-])ccc4s3)cc12
CAKI-1 renal
  TGI: > 100 µM
DU-145 prostate
  TGI: > 100 µM
IGROV1 ovarian
  TGI: > 100 µM
SK-OV-3 ovarian
  TGI: > 100 µM
HS 578T breast
  TGI: > 100 µM
BT-549 breast
  TGI: > 100 µM
TK-10 renal
  TGI: > 100 µM
NCI-H460 lung
  TGI: > 100 µM
OVCAR-5 ovarian
  TGI: > 100 µM
EKVX NSCLC
  TGI: > 100 µM
NCI-H23 lung
  TGI: > 100 µM
SNB-75 CNS
  TGI: > 100 µM
RPMI-8226 leukemia
  TGI: > 100 µM
NCI/ADR-RES ovarian
  TGI: > 100 µM
CCRF-CEM leukemia
  TGI: > 100 µM
MDA-MB-231 breast
  TGI: > 100 µM
SF-295 CNS
  TGI: > 100 µM
OVCAR-4 ovarian
  TGI: > 100 µM
HOP-62 NSCLC
  TGI: > 100 µM
HCT-15 colon
  TGI: > 100 µM
SK-MEL-5 melanoma
  TGI: > 100 µM
ACHN renal
  TGI: > 100 µM
M14 melanoma
  TGI: > 100 µM
RXF 393 renal
  TGI: > 100 µM
MOLT-4 leukemia
  TGI: > 100 µM
SK-MEL-28 melanoma
  TGI: > 100 µM
COLO 205 colon
  TGI: > 100 µM
MALME-3M melanoma
  TGI: > 100 µM
UO-31 renal
  TGI: > 100 µM
A549 NSCLC
  TGI: > 100 µM
LOX IMVI melanoma
  TGI: > 100 µM
NCI-H522 lung
  TGI: > 100 µM
HCC-2998 colon
  TGI: > 100 µM
HL-60(TB) leukemia
  TGI: > 100 µM
SW-620 colon
  TGI: > 100 µM
OVCAR-8 ovarian
  TGI: > 100 µM

— PubChem BioAssay (NCI)
